Data from ChEMBL document CHEMBL1201862, “PubChem BioAssay data set” (2004).
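Values below derive from 48-hour exposures of cells grown in 96-well plates, with endpoints linearly interpolated between the two concentrations bracketing the appropriate inhibition level. GI50 = concentration required for 50% inhibition of growth.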 Calls of active or inactive are those of the source. Rule as the data show it: active = GI50 up to about 1.1 µM and inactive = higher.

Columns and labels:
Assay in all cases: DTP human tumour cell line panel, 48 h
SK-MEL-28 = system: SK-MEL-28
UACC-62 = system: UACC-62
786-0 = system: 786-0
K562 = system: K562
HOP-62 = system: HOP-62
SK-MEL-2 = system: SK-MEL-2
NCI-H23 = system: NCI-H23
SK-MEL-5 = system: SK-MEL-5
NCI-H522 = system: NCI-H522
DU-145 = system: DU-145
SK-OV-3 = system: SK-OV-3
PC-3 = system: PC-3
NCI-H460 = system: NCI-H460
MDA-N = system: MDA-N
SF-295 = system: SF-295
ACHN = system: ACHN
A498 = system: A498
COLO 205 = system: COLO 205
SF-539 = system: SF-539

Measured: GI50

CCCn1cnc2c(SCc3ccc(Cl)cc3)nc(N)nc21
inactive: SK-MEL-28 29 µM | UACC-62 21.6 µM | 786-0 29.6 µM | K562 16.2 µM | HOP-62 17.3 µM | SK-MEL-2 18.4 µM | NCI-H23 31 µM | SK-MEL-5 15.3 µM | NCI-H522 16.5 µM | DU-145 36.6 µM | SK-OV-3 27.9 µM | PC-3 21.2 µM | NCI-H460 18.7 µM | MDA-N 21.9 µM | SF-295 21.6 µM | ACHN 16.3 µM | A498 16.7 µM

NC(Cc1c[nH]c2ccccc12)P(=O)(O)O (stereo unspecified)
inactive: SK-MEL-28 > 100 µM | UACC-62 > 100 µM | 786-0 > 100 µM | K562 > 100 µM | COLO 205 > 100 µM | HOP-62 > 100 µM | SK-MEL-2 > 100 µM | NCI-H23 > 100 µM | SK-MEL-5 > 100 µM | SF-539 > 100 µM | NCI-H522 > 100 µM | DU-145 > 100 µM | SK-OV-3 > 100 µM | PC-3 > 100 µM | NCI-H460 > 100 µM | MDA-N > 100 µM | SF-295 > 100 µM | ACHN > 100 µM | A498 > 100 µM

CCCCCCCCCCCCCCCCCCNc1ccn(C2OC(CO)C(O)C2O)c(=O)n1 (stereo unspecified)
inactive: SK-MEL-28 > 100 µM | UACC-62 > 100 µM | 786-0 > 100 µM | K562 > 73.8 µM | COLO 205 38 µM | HOP-62 > 100 µM | SK-MEL-2 > 100 µM | NCI-H23 > 100 µM | SK-MEL-5 > 100 µM | SF-539 > 100 µM | NCI-H522 19.8 µM | DU-145 > 100 µM | SK-OV-3 > 100 µM | PC-3 2.45 µM | NCI-H460 > 100 µM | MDA-N > 100 µM | SF-295 > 100 µM | ACHN > 100 µM | A498 > 100 µM

O=C(CSC1=NCCN1)Nc1ccccc1
inactive: SK-MEL-28 26.3 µM | UACC-62 22.1 µM | 786-0 16.1 µM | K562 40.6 µM | HOP-62 48 µM | SK-MEL-2 17.8 µM | NCI-H23 37.6 µM | NCI-H522 19 µM | DU-145 33.7 µM | PC-3 19.9 µM | NCI-H460 31.1 µM | MDA-N 17.7 µM | SF-295 29.4 µM | ACHN 22.4 µM | A498 35 µM

O=C(O)c1nc2ccccc2nc1Nc1ccc(Cl)c(Cl)c1
inactive: SK-MEL-28 13 µM | 786-0 20.2 µM | K562 21.7 µM | COLO 205 23.5 µM | HOP-62 16.1 µM | NCI-H23 17.7 µM | SK-MEL-5 15.7 µM | SF-539 19.9 µM | NCI-H522 17 µM | DU-145 36.4 µM | SK-OV-3 28.3 µM | PC-3 32.6 µM | NCI-H460 13.6 µM | MDA-N 24.9 µM | SF-295 17.3 µM | ACHN 29.5 µM | A498 13.1 µM

COC(=O)CCc1c(Cc2ccc[nH]2)[nH]c(C(=O)OCc2ccccc2)c1C
inactive: SK-MEL-28 20.1 µM | UACC-62 26.4 µM | 786-0 16.3 µM | K562 25.5 µM | COLO 205 17.5 µM | HOP-62 19.5 µM | SK-MEL-2 15.4 µM | NCI-H23 21.2 µM | SK-MEL-5 15.8 µM | SF-539 19.1 µM | NCI-H522 27.3 µM | DU-145 75.3 µM | SK-OV-3 > 100 µM | PC-3 18.2 µM | NCI-H460 > 100 µM | MDA-N 18 µM | SF-295 24.6 µM | ACHN 23.1 µM | A498 28.9 µM

C#CCOC(=O)C(N)C(C)O (stereo unspecified)
inactive: SK-MEL-28 > 100 µM | UACC-62 > 100 µM | 786-0 > 100 µM | K562 > 100 µM | COLO 205 > 100 µM | HOP-62 > 100 µM | SK-MEL-2 > 100 µM | NCI-H23 > 100 µM | SK-MEL-5 > 100 µM | NCI-H522 > 100 µM | DU-145 > 100 µM | SK-OV-3 > 100 µM | PC-3 > 100 µM | MDA-N > 100 µM | SF-295 > 100 µM | ACHN > 100 µM | A498 > 100 µM

CSC(CC(=O)O)C(=O)O (stereo unspecified)
inactive: SK-MEL-28 > 100 µM | UACC-62 > 100 µM | 786-0 > 100 µM | COLO 205 > 100 µM | HOP-62 > 100 µM | SK-MEL-2 > 100 µM | NCI-H23 > 100 µM | SK-MEL-5 > 100 µM | SF-539 > 100 µM | NCI-H522 > 100 µM | DU-145 > 100 µM | SK-OV-3 > 100 µM | PC-3 > 100 µM | NCI-H460 > 100 µM | MDA-N > 100 µM | SF-295 > 100 µM | ACHN > 100 µM | A498 > 100 µM
